Where “and” joins values, the source holds several entries; their conditions need not be identical. Identical values can stand only once. Entries after “also recorded” stand apart in the source; their conditions may differ.
Legend:
[1] = tested on: children with ASD; experiment: Adaptive Behavior Assessment System-II (ABAS-II), 12-week open label trial; assay type: in vivo, human; settings: sodium benzoate 250 to 500 mg/day, 12 weeks, c2-c7 = child A-F
Experimental: (§1) Six children with ASD were treated with 250 to 500 mg/day of sodium benzoate for 12 weeks. At the baseline and the final (12 weeks) visit, the assessments of receptive and expressive vocabulary test (REVT), core vocabularies gained in the core vocabulary communication system, Chinese child developmental inventory, adaptive behavior assessment system-II (ABAS-II), parenting stress index (PSI), clinical global impression-improvement scale (CGI-I) were arranged.
(§2) This study was a twelve-week open label trial with the aim of gaining experience with sodium benzoate for the treatment of non-communicative children with ASDs. The participants were a convenient sample of outpatients children recruited from the Department of Pediatrics, Kaohsiung Medical University Hospital, Taiwan.
(§3) Six children, including five boys and 1 child with ages between 3-year-7-month to 9-year-10-month old, were assigned to receive a 12-week treatment of sodium benzoate. For children with a body weight equal or more than 15 kg, benzoate was given with 500 mg/day. […]
The ABAS-II is an individually administered, norm-referenced measure of adaptive behaviors (Harrison and Oakland, 2003). […] A Global Adaptive Composite (GAC) score is calculated from all nine skill area scores and presented as a norm-referenced standard score. Results were recorded by the pre- and post-GAC score and Social score.

[2] = tested on: children with ASD; experiment: Parenting Stress Index-Chinese version (PSI), 12-week open label trial; assay type: in vivo, human; settings: sodium benzoate 250 to 500 mg/day, 12 weeks; * = above 85 percentile; c2-c7 = child A-F; Pre-Tx A-F: 70, 97.5, 99, 99, 69, 50
Experimental: as §1, §2
as §3, with “mg/day. For children with a body weight less than 15 kg, benzoate was given with 250 mg/day.” for “mg/day.”
Primary caregiver filled out the Chinese version of the parenting stress index (Wen, 2003) which was a validated Chinese version of the original questionnaire developed by Abdin (Abidin, 1986) that measured aspects of parental functioning. […]

[3] = tested on: children with ASD; experiment: Clinical Global Impression-Improvement Scale (CGI-I) and clinicians' conclusion, 12-week open label trial; assay type: in vivo, human; settings: for Clinicians' conclusion on improvement of the individual child (text): after 12 weeks, b64-b69 = child A-F in order
Experimental: as §1, §2
(§4) Six children, including five boys and 1 child with ages between 3-year-7-month to 9-year-10-month old, were assigned to receive a 12-week treatment of sodium benzoate. For children with a body weight equal or more than 15 kg, benzoate was given with 500 mg/day. For children with a body weight less than 15 kg, benzoate was given with 250 mg/day. Sodium benzoate was provided by Excelsior Pharmatech Labs (Taiwan).
(§5) All the children entering this study also started to receive communication training using the Core Vocabulary Communication System—Chinese version (the Unlimiter Assistive Technology Engineering Lab, Taiwan). Parents were required to teach their children 40 minutes per day at home using this System. During the 12-week period, the parents were required to bring children back the hospital every 2 weeks. At the baseline and the final (12 weeks) visit, the following assessments were arranged.
The CGI-I is an observer-rated scale that measures the global improvement of illness as compared to condition at admission to the trial (Guy, 1976).

[4] = tested on: children with ASD; experiment: Safety observations (activity level, sleep) in the 12-week open label trial; assay type: in vivo, human; settings: for Sleep: child C first 3 days of benzoate usage, child D, child E; for Activity level (untoward activating effect): child D at final assessment, child E in the first two weeks, returned to baseline one month later
Source text: The present disclosure examined the efficacy and safety of sodium benzoate, a D-amino acid oxidase inhibitor, for the treatment of an autism spectrum disorder.
as §2, §4, §5

[5] = tested on: early-phase Alzheimer disease; settings: prior trial; cited from earlier work
[6] = tested on: schizophrenia; settings: prior trial; cited from earlier work

SMILES: O=C([O-])c1ccccc1.[Na+] [sodium benzoate]
- ABAS-S: Parental reported Social Score, Post-Tx ([1]; Pre-Tx A-F: 71, 51, 57, 61, 46, 45): 77 and 51 and 50 and 44 and 46 and 45
- ABAS-GCS: Parental reported General Adaptive Composite Score, Post-Tx ([1]; Pre-Tx A-F: 77, 60, 47, 53, 50, 58): 77 and 61 and 46 and 49 and 53 and 57
- PSI % (parenting stress index, derived raw-to-percentile score), Post-Tx [2]: 62% and 93* % and 99* % and 99.9* % and 75% and 72%
- Clinicians' conclusion on improvement of the individual child (text) [3]: much improved; also recorded: no improvement; also recorded: minimally improved
- Clinicians' conclusion on improvement of the individual child (text) ([3]; listed as benzoate): minimal improvement
- Overall effect in teaching of communication skill as observed by the parents and clinicians ([3]; six children, 12 weeks): beneficial effects
- Participants judged to be much improved ([3]; six children, 12 weeks, child A, B, E): Half of the participants
- CGI: Clinical Global Impression-Improvement ([3]; sodium benzoate 250 to 500 mg/day, 12 weeks, c2-c7 = child A-F): much ((2) much improved); also recorded: mini-; also recorded: nil ((4) no change)
- Sleep [4]: sleep pattern was unaltered
- Sleep ([4]; listed as benzoate): not able to fall asleep at their usual sleep time
- Activity level (untoward activating effect) [4]: activity level became even higher; also recorded: activity level increased
- Activity level (untoward activating effect) ([4]; listed as benzoic acid salt): untoward activating effect
- Clinical symptoms, neurocognitive ability and quality of life [5]: Significant improvements
- Clinical symptoms, neurocognitive ability and quality of life [6]: Significant improvements
